Measured values reported in US20220380342A1, “BIPHENYL DERIVATIVES FOR BLOCKING PD-1/PD-L1 INTERACTION, PREPARATION METHOD THEREFOR AND USE THEREOF” (Abbisko Therapeutics Co., Ltd., priority 2019, published 2022).

Columns and labels:
[1] = target: T1, interaction between PD-1 and PD-L1 expressed on cell surfaces (Jurkat/NF-κB-luc/PD1 cells cocultured with Raji-PD-L1 cells) (Homo sapiens, UniProt Q9NZQ7); assay: Jurkat reporter gene cellular assay; format: cell-based; settings: OKT3 1 μg/mL stimulation, 6 hrs, activation fold vs DMSO
T1 construct: expressed in transfected cells; host or cells: Raji cells (PD-L1); Jurkat cells (PD-1, NF-κB-luc reporter)
Experimental: The effect of compounds of the examples of the present invention on the interaction between PD-1 and PD-L1 expressed on cell surfaces, and the related influence on T cell functions, were determined by a Jurkat reporter gene cellular assay.
Briefly, the reporter gene plasmid of NF-κB-luc and the plasmid of human PD-1 were transfected into Jurkat cells to establish a stably transfected cell line capable of stably expressing both PD-1 and NF-κB-Luc reporter genes; the expression level of PD-1 on the cell surface was confirmed by flow cytometry; and the expression of the reporter gene was confirmed via the response of the reporter gene stimulated by OKT-3 and Raji cells.
In addition, the plasmid of human PD-L1 was transfected into Raji cells to obtain a cell line capable of stably expressing PD-L1. Jurkat/NF-κB-luc/PD1 cells and Raji-PD-L1 cells were then cocultured and stimulated with OKT-3. On this basis, the compounds were added, and the enhancement of the signal pathway of T cell activation by the inhibitory effect of the compounds on the interaction between PD-1 and PD-L1 was evaluated by readings of reporter gene responses. The specific experimental process was as follows:
1) 30 μL of compound or antibody solution was added to each well of a white 96-well plate (Corning, 3610) at different diluted concentrations, and 10 μL of OKT3 (Biolegend, 317326) was then added (the final concentration of OKT3: 1 μg/mL);
2) 20 μL of Raji-PD-L1 cell suspension was added to each well with 5*10^4 cells for each well, and was incubated in an incubator for 20 min;
3) 20 μL of Jurkat/NF-Kb-luc/PD-1 cell suspension was added to each well with 5*10^4 cells for each well, and was well mixed, and 6 hrs later, Bright-glo (Promega, E2620) was applied and plates were read on Envision;
4) The reading of each well treated with the compound was compared with the reading of each well treated with DMSO to obtain the activation fold of the compound; and
5) EC50 values of compounds of the examples of the present invention were determined by non-linear regression analysis of activation folds at different compound concentrations.

[2] = target: T2, interaction between PD-1 and PD-L1 (Homo sapiens, UniProt Q9NZQ7); assay: PD1-PDL1 HTRF binding activity test; settings: Cisbio PD-1/PD-L1 binding assay kit; percent inhibition vs DMSO
T2 construct: purchased Cisbio 64ICP01PEG or 64ICP01PEH
Experimental: The effect of compounds of the examples of the present invention on the interaction between PD-1 and PD-L1 was determined by the PD-1/PD-L1 binding assay kit from Cisbio (#64ICP01PEG or 64ICP01PEH). The detailed experimental process was as follows:
1) Pre-diluted compound solution, 4 μL of Tag1-PD-L1 and 4 μL of Tag2-PD1 were added to each well of a 384-well plate;
2) After the mixture was incubated at room temperature for 15 min, 5 μL of anti-Tag1-Eu3+ antibody and 5 μL of anti-Tag2-XL665 antibody were then added;
3) After incubated for 2 hrs at room temperature or overnight at 4° C., plates were read on Envision of Perkin Elmer; and readings at 665 nm and 620 nm were recorded, and the ratio of the two readings was taken as a reading for each well;
4) The reading of each well after compound treatment was compared with the reading of DMSO treated wells to obtain the percent inhibition of the compound; and
5) IC50 values of compounds of the examples of the present invention were determined by non-linear regression analysis of percent inhibition at different compound concentrations.

T2 sequence (Q9NZQ7 19-238 limits assumed): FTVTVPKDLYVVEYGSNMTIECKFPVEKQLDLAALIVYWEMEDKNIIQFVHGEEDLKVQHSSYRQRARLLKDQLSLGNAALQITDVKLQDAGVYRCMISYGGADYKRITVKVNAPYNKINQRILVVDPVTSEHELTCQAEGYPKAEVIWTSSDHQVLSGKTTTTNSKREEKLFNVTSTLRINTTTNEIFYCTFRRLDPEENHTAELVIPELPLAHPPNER
T1 sequence (Q9NZQ7 19-290): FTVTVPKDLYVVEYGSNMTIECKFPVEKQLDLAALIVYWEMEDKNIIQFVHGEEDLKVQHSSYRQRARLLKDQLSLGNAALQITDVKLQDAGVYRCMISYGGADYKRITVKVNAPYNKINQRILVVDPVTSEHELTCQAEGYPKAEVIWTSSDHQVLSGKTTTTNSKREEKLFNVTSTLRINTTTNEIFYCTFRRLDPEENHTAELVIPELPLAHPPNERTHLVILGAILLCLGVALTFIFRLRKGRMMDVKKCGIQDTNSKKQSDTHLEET

SMILES | EC50 [1] [nM] | IC50 [2] [nM]
Cc1c(NC(=O)c2cc(C3CC3)c(CNCCO)cn2)cccc1-c1cccc(NC(=O)c2cc(C3CC3)c(CN3CCCC[C@H]3C(=O)O)cn2)c1C [Example 1, (S)-1-((4-cyclopropyl-6-((3′-(4-cyclopropyl-5-(((2-hydroxyethyl)amino)methyl)picolinamido)-2,2′-dimethyl-[1,1′-biphenyl]-3-yl)carbamoyl)pyridin-3-yl)methyl)piperidine-2-carboxylic acid] | 6.8 | 1.07
Cc1c(NC(=O)c2cc(C3CC3)c(CN[C@H](C)CO)cn2)cccc1-c1cccc(NC(=O)c2cc(C3CC3)c(CN3CCCC[C@H]3C(=O)O)cn2)c1C [Example 2, (S)-1-((4-cyclopropyl-6-((3′-(4-cyclopropyl-5-((((R)-1-hydroxypropan-2-yl)amino)methyl)picolinamido)-2,2′-dimethyl-[1,1′-biphenyl]-3-yl)carbamoyl)pyridin-3-yl)methyl)piperidine-2-carboxylic acid] | 9.2 | 1.21
Cc1c(NC(=O)c2cc(C3CC3)c(CN[C@@H]3CCC[C@H]3O)cn2)cccc1-c1cccc(NC(=O)c2cc(C3CC3)c(CN3CCCC[C@H]3C(=O)O)cn2)c1C [Example 6, (S)-1-((4-cyclopropyl-6-((3′-(4-cyclopropyl-5-((((1R,2R)-2-hydroxycyclopentyl)amino)methyl)picolinamido)-2, 2′-dimethyl-[1,1′-biphenyl]-3-yl)carbamoyl)pyridin-3-yl)methyl)piperidine-2-carboxylic acid] | 49.3 | 1.69
CCNCc1cnc(C(=O)Nc2cccc(-c3cccc(NC(=O)c4cc(C5CC5)c(CN5CCCC[C@H]5C(=O)O)cn4)c3C)c2C)cc1C1CC1 [Example 8, (S)-1-((4-cyclopropyl-6-((3′-(4-cyclopropyl-5-((ethylamino)methyl)picolinamido)-2,2′-dimethyl-[1,1′-biphenyl]-3-yl)carbamoyl)pyridin-3-yl)methyl) piperidine-2-carboxylic acid] | 23.8 | 1.27
Cc1c(NC(=O)c2cc(C3CC3)c(CNC(C)C)cn2)cccc1-c1cccc(NC(=O)c2cc(C3CC3)c(CN3CCCC[C@H]3C(=O)O)cn2)c1C [Example 9, (S)-1-((4-cyclopropyl-6-((3′-(4-cyclopropyl-5-((isopropylamino)methyl)picolinamido)-2,2′-dimethyl-[1,1′-biphenyl]-3-yl)carbamoyl)pyridin-3-yl)methyl) piperidine-2-carboxylic acid] | 33.9 | 5.1
Cc1c(NC(=O)c2cc(C3CC3)c(CNC3CC3)cn2)cccc1-c1cccc(NC(=O)c2cc(C3CC3)c(CN3CCCC[C@H]3C(=O)O)cn2)c1C [Example 10, (S)-1-((4-cyclopropyl-6-((3′-(4-cyclopropyl-5-((cyclopropylamino)methyl)picolinamido)-2,2′-dimethyl-[1,1′-biphenyl]-3-yl)carbamoyl)pyridin-3-yl)methyl) piperidine-2-carboxylic acid] | 120 | 3.38
Cc1c(NC(=O)c2cc(C3CC3)c(CNC3CCCC3)cn2)cccc1-c1cccc(NC(=O)c2cc(C3CC3)c(CN3CCCC[C@H]3C(=O)O)cn2)c1C [Example 11, (S)-1-((4-cyclopropyl-6-((3′-(4-cyclopropyl-5-((cyclopentylamino)methyl)picolinamido)-2,2′-dimethyl-[1,1′-biphenyl]-3-yl)carbamoyl)pyridin-3-yl)methyl) piperidine-2-carboxylic acid] | 14.5 | 3.19
Cc1c(NC(=O)c2cc(C3CC3)c(CN3CC[C@@H](O)C3)cn2)cccc1-c1cccc(NC(=O)c2cc(C3CC3)c(CN3CCCC[C@H]3C(=O)O)cn2)c1C [Example 13, (S)-1-((4-cyclopropyl-6-((3′-(4-cyclopropyl-5-(((R)-3-hydroxypyrrolidin-1-yl)methyl)picolinamido)-2,2′-dimethyl-[1,1′-biphenyl]-3-yl)carbamoyl)pyridin-3-yl)methyl)piperidine-2-carboxylic acid] | 11.8 | 1.48
Cc1c(NC(=O)c2cc(C3CC3)c(CN3CC[C@H](O)C3)cn2)cccc1-c1cccc(NC(=O)c2cc(C3CC3)c(CN3CCCC[C@H]3C(=O)O)cn2)c1C [Example 14, (S)-1-((4-cyclopropyl-6-((3′-(4-cyclopropyl-5-(((S)-3-hydroxypyrrolidin-1-yl)methyl)picolinamido)-2,2′-dimethyl-[1,1′-biphenyl]-3-yl)carbamoyl)pyridin-3-yl)methyl)piperidine-2-carboxylic acid] | 8.2 | 1.76
Cc1c(NC(=O)c2cc(C3CC3)c(CNC3COC3)cn2)cccc1-c1cccc(NC(=O)c2cc(C3CC3)c(CN3CCCC[C@H]3C(=O)O)cn2)c1C [Example 23, (S)-1-((4-cyclopropyl-6-((3′-(4-cyclopropyl-5-((oxetan-3-ylamino)methyl)picolinamido)-2,2′-dimethyl-[1,1′-biphenyl]-3-yl)carbamoyl)pyridin-3-yl)methyl)piperidine-2-carboxylic acid] | 77.5 | 2.57
CCOC(=O)[C@@H](CO)NCc1cnc(C(=O)Nc2cccc(-c3cccc(NC(=O)c4cc(C5CC5)c(CN5CC(C)(O)C5)cn4)c3C)c2C)cc1C1CC1 [Example 36-1, ethyl ((4-cyclopropyl-6-((3′-(4-cyclopropyl-5-((3-hydroxy-3-methylazetidin-1-yl)methyl)picolinamido)-2,2′-dimethyl-[1,1′-biphenyl]-3-yl)carbamoyl)pyridin-3-yl)methyl)-D-serinate] | – | 64.3

More lines, in order of falling IC50 [2], values ahead:

EC50 [1] [nM] | IC50 [2] [nM] | SMILES
14.9 | 1.07 | Cc1c(NC(=O)c2cc(C3CC3)c(CNC(C)CO)cn2)cccc1-c1cccc(NC(=O)c2cc(C3CC3)c(CN3CCCC[C@H]3C(=O)O)cn2)c1C (stereo in doubt) [Example 3, (S)-1-((4-cyclopropyl-6-((3′-(4-cyclopropyl-5-((((R)-1-hydroxypropan-2-yl)amino)methyl)picolinamido)-2,2′-dimethyl-[1,1′-biphenyl]-3-yl)carbamoyl)pyridin-3-yl)methyl)piperidine-2-carboxylic acid]
3.2 | 1.02 | Cc1c(NC(=O)c2cc(C3CC3)c(CN[C@H]3CCC[C@@H]3O)cn2)cccc1-c1cccc(NC(=O)c2cc(C3CC3)c(CN3CCCC[C@H]3C(=O)O)cn2)c1C [Example 4, (S)-1-((4-cyclopropyl-6-((3′-(4-cyclopropyl-5-((((1S,2S)-2-hydroxycyclopentyl)amino)methyl)picolinamido)-2, 2′-dimethyl-[1,1′-biphenyl]-3-yl)carbamoyl)pyridin-3-yl)methyl)piperidine-2-carboxylic acid]
10.6 | 1.02 | Cc1c(NC(=O)c2cc(C3CC3)c(CN3CCCC3)cn2)cccc1-c1cccc(NC(=O)c2cc(C3CC3)c(CN3CCCC[C@H]3C(=O)O)cn2)c1C [Example 12]
15.1 | 0.68 | Cc1c(NC(=O)c2cc(C3CC3)c(CN3CC(C)(O)C3)cn2)cccc1-c1cccc(NC(=O)c2cc(C3CC3)c(CN3CCCC[C@H]3C(=O)O)cn2)c1C [Example 15, (S)-1-((4-cyclopropyl-6-((3′-(4-cyclopropyl-5-((3-hydroxy-3-methylazetidin-1-yl)methyl)picolinamido)-2,2′-dimethyl-[1,1′-biphenyl]-3-yl)carbamoyl)pyridin-3-yl)methyl)piperidine-2-carboxylic acid]
24.1 | 0.49 | CNCc1cnc(C(=O)Nc2cccc(-c3cccc(NC(=O)c4cc(C5CC5)c(CN5CCCC[C@H]5C(=O)O)cn4)c3C)c2C)cc1C1CC1 [Example 7, (S)-1-((4-cyclopropyl-6-((3′-(4-cyclopropyl-5-((methylamino)methyl)picolinamido)-2,2′-dimethyl-[1,1′-biphenyl]-3-yl)carbamoyl)pyridin-3-yl)methyl) piperidine-2-carboxylic acid]
